According to patent publication US8309110B2, “Biocide composition and sterilization method using the same” (priority 1998, dated 2012):

System: mixed solution of 8 types of bacteria
Test: MIC and synergistic index on a mixed solution of 8 types of bacteria, two fold dilution method
Assay type: cell-based
Details: 72 h; 30 degrees centigrade, 3 days, Tryptic Soy Broth; read-out: Qa: MIC value on the mixed strain of a single 3-isothiazolone
Protocol: The sterilizing effects of 3-isothiazolone and polyhexamethyleneguanidine phosphate on a mixed solution of 8 types of bacteria (Enterobacter aerogens ATCC 13048, Escherichia coli ATCC 11229, Micrococcus luteus ATCC 9341, Pseudomonas aeruginosa ATCC 15442, Klebsiella pneumoniae, Staphylococcus epidermis ATCC 155, Staphylococcus aureus ATCC 6538, and Bacillus subtilis ATCC 6984) were tested using Tryptic Soy Broth manufactured by Difco Corporation according to the two fold dilution method. The minimum inhibiting concentration of each biocide and mixtures thereof were determined by observation with the naked eye of the degree of muddiness of the lowest concentration in which growth was deteriorated after culturing a culture fluid in which biocides and microorganisms are added at 30 degrees centigrade for 3 days.

## O=c1ccs[nH]1 [3-isothiazolone]
  MIC: 18.8 µg/mL
